Laboratory results reported in patent US10100285B2, “Ex vivo proliferation of epithelial cells” (PROPAGENIX INC., priority 2015, dated 2018).

B1: interferon γ: Interferon γ (100 ng/ml; Thermo Fisher Scientific) (protein, UniProt P01579 24-161, looked up)
Interferon gamma: QDPYVKEAENLKKYFNAGHSDVADNGTLFLGILKNWKEESDRKIMQSQIVSFYFKLFKNFKDDQSIQKSVETIKEDMNVKFFNSNKKKRDDFEKLTNYSVTDLNVQRKAIHELIQVMAELSPAAKTGKRKRSQMLFRG

Assays:
[1] = system: human foreskin keratinocytes (HFK); assay: Epidermal-like structure in air-liquid-interface differentiation (H&E); assay type: cell-based; conditions: 1.5 mM CaCl2 in KSFM+A+Y, day 14
Experimental: Keratinocytes formed an epidermal-like structure over time in air-liquid-interface differentiation, in the presence of high concentration (1.5 mM) of CaCl2 in KSFM plus A 83-01 and Y-27632. Specifically, human foreskin keratinocytes (HFK) previously cultured in KSFM supplemented with 1 μM A83-01 and 5 μM Y-27632 (KSFM+A+Y) at low CaCl2 (90 μM) were plated on a porous membrane support ([…], Corning, 354474) and maintained for 14 days. The cells were covered by culture medium (KSFM+A+Y and 1.5 mM of CaCl2) for the first day and exposed to air for the remaining days. At the end of experiment (i.e., on day 14), the culture was fixed in 4% paraformaldehyde, embedded in paraffin and sectioned for haematoxylin and eosin staining (H&E) to reveal its structure.

[2] = system: human foreskin keratinocytes (HFK); assay: Tight junction formation, ZO-1 immunofluorescence; assay type: cell-based; conditions: CaCl2 raised to 1.5 mM in KSFM+A+Y
Experimental: Specifically, late passage human foreskin keratinocytes (HFK) cultured in KSFM supplemented with 1 μM A83-01 and 5 μM Y-27632 (KSFM+A+Y) at low CaCl2 (90 μM) were allowed to reach confluence. The cells remained in the KSFM+A+Y conditions and the CaCl2 concentration was raised to 1.5 mM to induce differentiation.

[3] = system: bronchial epithelial cells; assay: Trans-epithelium electric resistance (TEER) of bronchial epithelial cells on […]; assay type: cell-based, human
Experimental: In a further investigation, effects of culture media calcium content on intercellular junctions was assessed for bronchial epithelial cells cultured in KSFM plus A83-01 and Y-27632. Intercellular junctions were assessed according to paracellular flow of ions as measured by trans-epithelium electric resistance (TEER). […] Bronchial epithelial cells were plated on porous membrane support ([…], Corning, 354474) and maintained for 7 days when the membrane was covered with culture medium (submerged phase, grayed box in FIG. 29, top panel). On day 8, the medium was removed from the apical side of the membrane, and the cells were exposed to air to induce further differentiation. Further, as shown in FIG. 29 (bottom panel), bronchial epithelial cells established increasing transmembrane electric resistance (TEER) over time in the presence of high concentration (1 mM) of CaCl2 in KSFM plus A 83-01 and Y-27632. Bronchial epithelial cells were plated on a porous membrane support ([…], Corning, 354474) and maintained for 24 days, with the membrane covered by culture medium for the duration of the culture. Trans-epithelium electric resistance (TEER) remained at a high level throughout the culture period.

[4] = system: human bronchial epithelial cells; assay: Effect of culture media calcium content on cell behavior; assay type: cell-based; conditions: 1 mM CaCl2 in KSFM plus A83-01 and Y-27632
Experimental: Effects of culture media calcium content on cell behavior were assessed for epithelial cells cultured in KSFM plus A83-01 and Y-27632. Human bronchial epithelial cells were grown KSFM (with 90 μM CaCl2) plus A83-01 and Y-27632. These cells dispersed throughout the culture vessel (FIG. 28, left panel), and few cells formed intercellular connections, even when they were in close proximity to each other. […] Cells in the center of the patches tended to pile up, and boundaries between individual cells generally were not discernable. In certain instances, abnormal elongations formed between clusters.

[5] = system: human foreskin keratinocytes (HFK); assay: TEER in air-liquid-interface differentiation of keratinocytes; assay type: cell-based; conditions: 1.5 mM CaCl2 in KSFM+A+Y, 14 days
Experimental: Keratinocytes established increasing transmembrane electric resistance (TEER) over time in air-liquid-interface differentiation, in the presence of high concentration (1.5 mM) of CaCl2 in KSFM plus A 83-01 and Y-27632. Specifically, human foreskin keratinocytes (HFK) previously cultured in KSFM supplemented with 1 μM A83-01 and 5 μM Y-27632 (KSFM+A+Y) at low CaCl2 (90 μM) were plated on a porous membrane support ([…], Corning, 354474) and maintained for 14 days. The cells were covered by culture medium (KSFM+A+Y and 1.5 mM of CaCl2) for the first day (submerged phase, grayed box in FIG. 34) and exposed to air for the remaining days.

[6] = system: human bronchial epithelial cells (HBEC) and human foreskin keratinocytes (HFK); assay: Dome-like structure formation at high CaCl2; assay type: cell-based; conditions: CaCl2 raised to 1.5 mM in KSFM+A+Y, 7 to 10 days
Experimental: Dome-like structures formed in keratinocyte and bronchial epithelial cell cultures in the presence of high concentration of CaCl2. Specifically, late passage human bronchial epithelial cells (HBEC) and late passage human foreskin keratinocytes (HFK) cultured in KSFM supplemented with 1 μM A 83-01 and 5 μM Y-27632 (KSFM+A+Y) at low CaCl2 (90 μM) were allowed to reach confluence in 6-well plates. The cells remained in the KSFM+A+Y conditions and the CaCl2 concentration was raised to 1.5 mM to induce differentiation of the epithelial cells.

[7] = system: hAECs; assay: Effect of interferon γ on immunomodulatory gene expression in hAECs (qRT-PCR); assay type: cell-based, human; conditions: 100 ng/mL, 48 hours
Experimental: In certain instances, treatment of hAECs with interferon γ (INFγ) leads to an upregulation of genes involved in immune suppression. However, cultured hAECs typically lose their functional phenotype (see e.g., cells tested at passage 5 in Pratama et al. 2011 PLoS ONE 6(11): e26136). In this example, hAECs isolated from two different donors (Donor 1 and Donor 2), were tested for their response to INFγ both in KSFM A+Y and after removal from growth conditions and placement into standard hAEC media (DMEM:F12 10% FBS). Cells from both donors grown in KSFM A+Y at passage 4 at ˜80% confluence were either kept in KSFM A+Y, changed to KSFM A+Y+100 ng/mL INFγ, or changed to DMEM:F12+/−100 ng/mL INFγ. The cells were left for an additional 48 hours in each condition. qRT-PCR was used to examine expression levels of HLA-G, Indoleamine 2,3-dioxygenase (IDO), and Programmed Death Ligand 1 (PD-L1) (see FIGS. 46A-46D).
HLA-G can have a wide variety of immunomodulatory effects on numerous immune cells. Expression of HLA-G is generally considered a prominent feature of hAECs, and often is lost during expansion in culture. […] IDO is the first and rate-limiting enzyme of tryptophan catabolism through the kynurenine pathway, thus causing depletion of tryptophan which can inhibit T cell proliferation. […] PD-L1 may play a major role in immune suppression, inhibiting the proliferation and inducing apoptosis of T cells.

[8] = system: CD4+ and CD8+ T cells (human PBMCs); assay: T cell proliferation, Cell Trace CFSE stained PBMCs with PHA co-incubated with hAECs; assay type: cell-based; conditions: 48 hour preincubation of hAECs with interferon γ 100 ng/ml
From the text: Human Peripheral Blood Mononuclear Cells (PBMCs) were isolated and stained with Cell Trace CFSE (Thermo Fisher Scientific). Cell Trace CFSE is a cell permeable amine reactive fluorescent dye that non-specifically labels intracellular proteins. Through subsequent cell divisions each daughter cell receives approximately half of the label allowing for determination of the intensity of fluorescence by flow cytometry and correlation to the number of cell divisions. Cell Trace CFSE stained PBMCs were added to ˜80% confluent monolayers of hAECs from Donor 1 (P4) and Donor 2 (P4) expanded in KSFM A+Y. Upon addition of the stained PMBCs the media was changed to RPMI media with 10% FBS and 5 μg/ml phytohaemagglutinin (PHA). PHA is a potent mitotic agent used to activate and stimulate proliferation of lymphocytes. The expanded hAECs were used directly from growth conditions or after a 48 hour preincubation with Interferon γ (100 ng/ml; Thermo Fisher Scientific). This treatment can increase the immunosuppressive effect of hAECs. […] The degree of inhibition of proliferation was calculated by determining the number of cells that proliferated in the presence of hAECs relative to the number of cells that proliferated when exposed to PHA treatment alone (FIG. 45D). […]

Molecule	epidermal-like structure formation [1]	tight junction formation (ZO-1) [2]	intercellular junctions (TEER) ([3]; high concentration (1 mM) in KSFM plus A 83-01 and Y-27632)	intercellular junctions (TEER) ([3]; low concentration (90 μM) in KSFM plus A 83-01 and Y-27632)	cell behavior [4]	trans-epithelium electric resistance (TEER) [5]	dome-like structure formation [6]	IDO expression [7]	PD-L1 expression [7]	HLA-G expression ([7]; after moving cells to standard media (DMEM:F12))	inhibition of T cell proliferation by hAECs [8]
[Ca+2].[Cl-].[Cl-] [CaCl2]	differentiated into multi-layer structures	Tight junction formation was observed	established tight intercellular junctions	failed to establish tight intercellular junctions	aggregate into tight clusters	reached very high levels	Many dome-like structures were formed				
B1								increases dramatically	dramatic increase in expression	greatly increased	increased
